Earlier results in patent publication US7645459B2, “Dosage forms of bisphosphonates” (The Procter & Gamble Company, priority 2004, dated 2010).

Conditions: administration within 30 minutes of a meal

- reduction of the amount absorbed compared to administration in the fasting state: 50%
Structure (SMILES): O=P(O)(O)C(O)(Cc1cccnc1)P(=O)(O)O [risedronate, 1-hydroxy-2-(3-pyridinyl)-ethylidene-1,1-bisphosphonic acid]
